In brackets after ≈: the same amount, converted by molar mass.
Legend:
Type in all cases: functional
Conditions in all cases: time 16-20 hrs
Enterococcus faecium = test: Antibacterial activity against vancomycin-resistant Enterococcus faecium ATCC 700221 assessed as bacterial growth inhibition incubated for 16 to 20 hrs by CLSI based two-fold serial dilution method
Staphylococcus aureus [1] = test: Antibacterial activity against methicillin-resistant Staphylococcus aureus ATCC 700698 assessed as bacterial growth inhibition incubated for 16 to 20 hrs by CLSI based two-fold serial dilution method
[2] = system: Staphylococcus epidermidis; test: Antibacterial activity against methicillin-sensitive Staphylococcus epidermidis ATCC 12228 assessed as bacterial growth inhibition incubated for 16 to 20 hrs by CLSI based two-fold serial dilution method
Enterococcus faecalis [3] = test: Antibacterial activity against vancomycin-resistant Enterococcus faecalis ATCC 51299 assessed as bacterial growth inhibition incubated for 16 to 20 hrs by CLSI based two-fold serial dilution method
Staphylococcus aureus [4] = test: Antibacterial activity against methicillin-resistant Staphylococcus aureus ATCC 43300 assessed as bacterial growth inhibition incubated for 16 to 20 hrs by CLSI based two-fold serial dilution method
Staphylococcus aureus [5] = test: Antibacterial activity against methicillin-sensitive Staphylococcus aureus ATCC 29213 assessed as bacterial growth inhibition incubated for 16 to 20 hrs by CLSI based two-fold serial dilution method
Enterococcus faecalis [6] = test: Antibacterial activity against vancomycin-sensitive Enterococcus faecalis ATCC 29212 assessed as bacterial growth inhibition incubated for 16 to 20 hrs by CLSI based two-fold serial dilution method

CC1=CC(O)=C2C(=O)c3c(ccc(-c4ccc5c(c4O)C(=O)C4=C(O)C[C@@H](C)[C@H](O)[C@@]4(C)O5)c3O)O[C@@]2(C)[C@H]1O
MIC (Enterococcus faecium): 1 µg/mL (≈ 1.82 µM) | MIC (Staphylococcus aureus [1]): 0.25 µg/mL (≈ 0.456 µM) | MIC [2]: ≤ 0.125 µg/mL | MIC (Enterococcus faecalis [3]): 4 µg/mL (≈ 7.29 µM) | MIC (Staphylococcus aureus [4]): 0.5 µg/mL (≈ 0.912 µM) | MIC (Staphylococcus aureus [5]): 0.5 µg/mL (≈ 0.912 µM) | MIC (Enterococcus faecalis [6]): 2 µg/mL (≈ 3.65 µM)

CC1=CC(O)=C2C(=O)c3c(ccc(-c4ccc5c(c4O)C(=O)C4=C(O)C=C(C)[C@H](O)[C@]4(C)O5)c3O)O[C@]2(C)C1=O
MIC (Enterococcus faecium): 0.5 µg/mL (≈ 0.918 µM) | MIC (Staphylococcus aureus [1]): 0.25 µg/mL (≈ 0.459 µM) | MIC [2]: ≤ 0.125 µg/mL | MIC (Enterococcus faecalis [3]): 2 µg/mL (≈ 3.67 µM) | MIC (Staphylococcus aureus [4]): 0.5 µg/mL (≈ 0.918 µM) | MIC (Staphylococcus aureus [5]): 0.5 µg/mL (≈ 0.918 µM) | MIC (Enterococcus faecalis [6]): 2 µg/mL (≈ 3.67 µM)

C[C@H]1COc2c(N3CCN(C)CC3)c(F)cc3c(=O)c(C(=O)O)cn1c23 [LEVOFLOXACIN ANHYDROUS]
MIC (Enterococcus faecium): > 64 µg/mL | MIC (Staphylococcus aureus [1]): 0.125 µg/mL (≈ 0.346 µM) | MIC [2]: 0.25 µg/mL (≈ 0.692 µM) | MIC (Enterococcus faecalis [3]): 1 µg/mL (≈ 2.77 µM) | MIC (Staphylococcus aureus [4]): 0.125 µg/mL (≈ 0.346 µM) | MIC (Staphylococcus aureus [5]): 0.125 µg/mL (≈ 0.346 µM) | MIC (Enterococcus faecalis [6]): 1 µg/mL (≈ 2.77 µM)

CC1=CC(O)=C2C(=O)c3c(O)ccc(-c4ccc5c(c4O)C(=O)C4=C(O)C=C(C)[C@H](O)[C@]4(C)O5)c3O[C@@]2(C)C1=O
MIC (Enterococcus faecium): 0.5 µg/mL (≈ 0.918 µM) | MIC (Staphylococcus aureus [1]): 0.25 µg/mL (≈ 0.459 µM) | MIC [2]: ≤ 0.125 µg/mL | MIC (Enterococcus faecalis [3]): 2 µg/mL (≈ 3.67 µM) | MIC (Staphylococcus aureus [4]): 0.5 µg/mL (≈ 0.918 µM) | MIC (Staphylococcus aureus [5]): 0.5 µg/mL (≈ 0.918 µM) | MIC (Enterococcus faecalis [6]): 2 µg/mL (≈ 3.67 µM)

CC1=CC(O)=C2C(=O)c3c(O)ccc(-c4ccc5c(c4O)C(=O)C4=C(O)C=C(C)[C@H](O)[C@]4(C)O5)c3O[C@]2(C)C1=O
MIC (Enterococcus faecium): 1 µg/mL (≈ 1.84 µM) | MIC (Staphylococcus aureus [1]): 0.5 µg/mL (≈ 0.918 µM) | MIC [2]: 0.25 µg/mL (≈ 0.459 µM) | MIC (Enterococcus faecalis [3]): 4 µg/mL (≈ 7.35 µM) | MIC (Staphylococcus aureus [4]): 1 µg/mL (≈ 1.84 µM) | MIC (Staphylococcus aureus [5]): 1 µg/mL (≈ 1.84 µM) | MIC (Enterococcus faecalis [6]): 4 µg/mL (≈ 7.35 µM)

CC1=CC(O)=C2C(=O)c3c(ccc(-c4ccc5c(c4O)C(=O)C4=C(O)C=C(C)[C@H](O)[C@]4(C)O5)c3O)O[C@@]2(C)C1=O
MIC (Enterococcus faecium): 2 µg/mL (≈ 3.67 µM) | MIC (Staphylococcus aureus [1]): 0.5 µg/mL (≈ 0.918 µM) | MIC [2]: ≤ 0.125 µg/mL | MIC (Enterococcus faecalis [3]): 4 µg/mL (≈ 7.35 µM) | MIC (Staphylococcus aureus [4]): 1 µg/mL (≈ 1.84 µM) | MIC (Staphylococcus aureus [5]): 1 µg/mL (≈ 1.84 µM) | MIC (Enterococcus faecalis [6]): 4 µg/mL (≈ 7.35 µM)

CC1=CC(O)=C2C(=O)c3c(ccc(-c4ccc5c(c4O)C(=O)C4=C(O)C=C(C)C(=O)[C@]4(C)O5)c3O)O[C@@]2(C)C1=O
MIC (Enterococcus faecium): 1 µg/mL (≈ 1.84 µM) | MIC (Staphylococcus aureus [1]): 0.5 µg/mL (≈ 0.922 µM) | MIC [2]: 0.25 µg/mL (≈ 0.461 µM) | MIC (Enterococcus faecalis [3]): 4 µg/mL (≈ 7.37 µM) | MIC (Staphylococcus aureus [4]): 1 µg/mL (≈ 1.84 µM) | MIC (Staphylococcus aureus [5]): 1 µg/mL (≈ 1.84 µM) | MIC (Enterococcus faecalis [6]): 4 µg/mL (≈ 7.37 µM)

CC1=CC(O)=C2C(=O)c3c(ccc(-c4ccc(O)c(C(=O)c5c(O)cc(C)c(O)c5C)c4O)c3O)O[C@@]2(C)[C@H]1O
MIC (Enterococcus faecium): 1 µg/mL (≈ 1.83 µM) | MIC (Staphylococcus aureus [1]): 0.5 µg/mL (≈ 0.915 µM) | MIC [2]: ≤ 0.125 µg/mL | MIC (Enterococcus faecalis [3]): 4 µg/mL (≈ 7.32 µM) | MIC (Staphylococcus aureus [4]): 1 µg/mL (≈ 1.83 µM) | MIC (Staphylococcus aureus [5]): 1 µg/mL (≈ 1.83 µM) | MIC (Enterococcus faecalis [6]): 2 µg/mL (≈ 3.66 µM)

CC1=CC(O)=C2C(=O)c3c(ccc(-c4ccc5c(c4O)C(=O)C4=C(O)C=C(C)[C@H](O)[C@]4(C)O5)c3O)O[C@@]2(C)[C@H]1O
MIC (Enterococcus faecium): 16 µg/mL (≈ 29.3 µM) | MIC (Staphylococcus aureus [1]): 2 µg/mL (≈ 3.66 µM) | MIC [2]: 1 µg/mL (≈ 1.83 µM) | MIC (Enterococcus faecalis [3]): 128 µg/mL (≈ 234 µM) | MIC (Staphylococcus aureus [4]): 4 µg/mL (≈ 7.32 µM) | MIC (Staphylococcus aureus [5]): 2 µg/mL (≈ 3.66 µM) | MIC (Enterococcus faecalis [6]): 128 µg/mL (≈ 234 µM)

CC1=CC(O)=C2C(=O)c3c(ccc(-c4ccc5c(c4O)C(=O)[C@@]4(O)C(=O)C=C(C)[C@H](O)[C@]4(C)O5)c3O)O[C@]2(C)[C@H]1O
MIC (Enterococcus faecium): 4 µg/mL (≈ 7.11 µM) | MIC (Staphylococcus aureus [1]): 4 µg/mL (≈ 7.11 µM) | MIC [2]: 0.5 µg/mL (≈ 0.889 µM) | MIC (Enterococcus faecalis [3]): 16 µg/mL (≈ 28.4 µM) | MIC (Staphylococcus aureus [4]): 4 µg/mL (≈ 7.11 µM) | MIC (Staphylococcus aureus [5]): 4 µg/mL (≈ 7.11 µM) | MIC (Enterococcus faecalis [6]): 16 µg/mL (≈ 28.4 µM)

CC1=C[C@H](O)[C@]2(O)C(=O)c3c(ccc(-c4ccc5c(c4O)C(=O)C4=C(O)C[C@@H](C)[C@H](O)[C@@]4(C)O5)c3O)O[C@@]2(C)[C@H]1O
MIC (Enterococcus faecium): 1 µg/mL (≈ 1.77 µM) | MIC (Staphylococcus aureus [1]): 0.5 µg/mL (≈ 0.883 µM) | MIC [2]: ≤ 0.125 µg/mL | MIC (Enterococcus faecalis [3]): 4 µg/mL (≈ 7.06 µM) | MIC (Staphylococcus aureus [4]): 0.5 µg/mL (≈ 0.883 µM) | MIC (Staphylococcus aureus [5]): 0.5 µg/mL (≈ 0.883 µM) | MIC (Enterococcus faecalis [6]): 2 µg/mL (≈ 3.53 µM)
